Assay results reported in US20250230193A1, “CYCLIC COMPOUND HAVING SELECTIVE KRAS INHIBITORY EFFECT ON HRAS AND NRAS” (CHUGAI SEIYAKU KABUSHIKI KAISHA, priority 2022, published 2025).

What was measured:
[1] = target: GDP-bound NRAS wild-type protein (Homo sapiens, UniProt P01111); test: Binding to NRAS by surface plasmon resonance (SPR), Single Cycle Kinetics; conditions: SPR, GDP-bound NRAS wild-type vs GDP-bound KRAS wild-type
[2] = target: GDP-bound HRAS wild-type protein (Homo sapiens, UniProt P01112); test: Binding to HRAS by surface plasmon resonance (SPR), Single Cycle Kinetics; conditions: SPR, GDP-bound HRAS wild-type vs GDP-bound KRAS wild-type
Chain of GDP-bound HRAS wild-type protein (P01112 whole entry): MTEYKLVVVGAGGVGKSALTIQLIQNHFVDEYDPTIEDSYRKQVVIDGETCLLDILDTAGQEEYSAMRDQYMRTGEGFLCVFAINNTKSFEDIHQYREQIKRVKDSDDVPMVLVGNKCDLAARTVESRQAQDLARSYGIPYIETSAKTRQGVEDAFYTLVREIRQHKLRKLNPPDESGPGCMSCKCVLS

Chain of GDP-bound NRAS wild-type protein (P01111 whole entry): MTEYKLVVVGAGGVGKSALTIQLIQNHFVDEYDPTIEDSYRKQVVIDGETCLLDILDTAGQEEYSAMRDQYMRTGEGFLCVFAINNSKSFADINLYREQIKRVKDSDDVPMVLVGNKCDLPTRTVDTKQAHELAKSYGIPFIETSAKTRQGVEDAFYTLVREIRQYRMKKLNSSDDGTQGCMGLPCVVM

CCO[C@@H]1C[C@H]2C(=O)NC3(CCCC3)C(=O)N(C)[C@@H](C3CCCC3)C(=O)N(C)[C@H](C(=O)N(C)C)CC(=O)N(C)[C@@H](CC(C)C)C(=O)N[C@@H]([C@@H](C)CC)C(=O)N(C)CC(=O)N(C)[C@H]3C/C=C\CCN(C3=O)[C@@H](Cc3ccc(C)cc3)C(=O)N(C)CC(=O)N[C@@H](CCc3ccc(C(F)(F)F)c(Cl)c3)C(=O)N2C1 [PP2195]
NRAS/KRAS (ratio of KD value with respect to NRAS to KD value with respect to KRAS) [1]: A (a compound having 10 or more and less than 20 is denoted as A) | HRAS/KRAS (ratio of KD value with respect to HRAS to KD value with respect to KRAS) [2]: A (a compound having 10 or more and less than 20 is denoted as A)

CCC[C@H]1C(=O)N[C@@H](C2CCCC2)C(=O)N(C)CC(=O)N(C)[C@H]2C/C=C\CCN(C2=O)[C@@H](Cc2ccc(C)cc2)C(=O)N(C)CC(=O)N[C@@H](CCc2ccc(C(F)(F)F)c(Cl)c2)C(=O)N2C[C@H](OCC)C[C@H]2C(=O)NC2(CC(C)(C)C2)C(=O)N(C)[C@@H](CC(C)(C)C)C(=O)N(C)[C@H](C(=O)N(C)C)CC(=O)N1C [PP2196]
NRAS/KRAS (ratio of KD value with respect to NRAS to KD value with respect to KRAS) [1]: A (a compound having 10 or more and less than 20 is denoted as A) | HRAS/KRAS (ratio of KD value with respect to HRAS to KD value with respect to KRAS) [2]: B (a compound having 3 or more and less than 10 is denoted as B)

CCO[C@@H]1C[C@H]2C(=O)NC3(CCCC3)C(=O)N(C)[C@@H](C3CCCC3)C(=O)N(C)[C@H](C(=O)N(C)C)CC(=O)N(C)[C@@H](CC(C)C)C(=O)N[C@@H]([C@@H](C)CC)C(=O)N(C)CC(=O)N(C)[C@H]3C/C=C\CCN(C3=O)[C@@H](Cc3ccc(C)cc3)C(=O)N(C)CC(=O)N[C@@H](CCc3ccc(C(F)(F)F)c(OC)c3)C(=O)N2C1 [PP2197]
NRAS/KRAS (ratio of KD value with respect to NRAS to KD value with respect to KRAS) [1]: A (a compound having 10 or more and less than 20 is denoted as A) | HRAS/KRAS (ratio of KD value with respect to HRAS to KD value with respect to KRAS) [2]: B (a compound having 3 or more and less than 10 is denoted as B)

CCC[C@H]1C(=O)N[C@@H](C2CCCC2)C(=O)N(C)CC(=O)N(C)[C@H]2C/C=C\CCN(C2=O)[C@@H](Cc2ccc(C)cc2)C(=O)N(C)CC(=O)N[C@@H](CCc2ccc(C(F)(F)F)c(Cl)c2)C(=O)N2C[C@H](OCC)C[C@H]2C(=O)NC2(CC(C)(C)C2)C(=O)N(C)[C@@H](C2CCCC2)C(=O)N(C)[C@H](C(=O)N(C)C)CC(=O)N1C [PP2198]
NRAS/KRAS (ratio of KD value with respect to NRAS to KD value with respect to KRAS) [1]: A (a compound having 10 or more and less than 20 is denoted as A) | HRAS/KRAS (ratio of KD value with respect to HRAS to KD value with respect to KRAS) [2]: A (a compound having 10 or more and less than 20 is denoted as A)

CCC[C@H]1C(=O)N[C@@H](C(CC)CC)C(=O)N(C)CC(=O)N(C)[C@H]2C/C=C\CCN(C2=O)[C@@H](Cc2ccc(C)cc2)C(=O)N(C)CC(=O)N[C@@H](CCc2ccc(C(F)(F)F)c(Cl)c2)C(=O)N2C[C@H](OCC)C[C@H]2C(=O)NC2(CC(C)(C)C2)C(=O)N(C)[C@@H](CC(C)C)C(=O)N(C)[C@H](C(=O)N(C)C)CC(=O)N1C [PP2202]
NRAS/KRAS (ratio of KD value with respect to NRAS to KD value with respect to KRAS) [1]: A (a compound having 10 or more and less than 20 is denoted as A) | HRAS/KRAS (ratio of KD value with respect to HRAS to KD value with respect to KRAS) [2]: A (a compound having 10 or more and less than 20 is denoted as A)

CCCOC[C@H]1C(=O)N[C@@H]([C@@H](C)CC)C(=O)N(C)CC(=O)N(C)[C@H]2C/C=C\CCN(C2=O)[C@@H](Cc2ccc(C)cc2)C(=O)N(C)CC(=O)N[C@@H](CCc2cc(F)c(C(F)(F)F)c(F)c2)C(=O)N2C[C@H](CCC)C[C@H]2C(=O)NC2(CC(C)(C)C2)C(=O)N(C)[C@@H](C2CCCC2)C(=O)N(C)[C@H](C(=O)N(C)C)CC(=O)N1C [PP2203]
NRAS/KRAS (ratio of KD value with respect to NRAS to KD value with respect to KRAS) [1]: A (a compound having 10 or more and less than 20 is denoted as A) | HRAS/KRAS (ratio of KD value with respect to HRAS to KD value with respect to KRAS) [2]: A (a compound having 10 or more and less than 20 is denoted as A)

CCC[C@H]1C(=O)N[C@@H](C(CC)CC)C(=O)N(C)CC(=O)N(C)[C@H]2C/C=C\CCN(C2=O)[C@@H](Cc2ccc(C)cc2)C(=O)N(C)CC(=O)N[C@@H](CCc2ccc(C(F)(F)F)c(Cl)c2)C(=O)N2C[C@H](OCC)C[C@H]2C(=O)NC2(CC(C)(C)C2)C(=O)N(C)[C@@H](CC(C)(C)C)C(=O)N(C)[C@H](C(=O)N(C)C)CC(=O)N1C [PP2207]
NRAS/KRAS (ratio of KD value with respect to NRAS to KD value with respect to KRAS) [1]: A (a compound having 10 or more and less than 20 is denoted as A) | HRAS/KRAS (ratio of KD value with respect to HRAS to KD value with respect to KRAS) [2]: A (a compound having 10 or more and less than 20 is denoted as A)

CCC[C@@H]1C[C@H]2C(=O)NC3(CC(C)(C)C3)C(=O)N(C)[C@@H](C3CCCC3)C(=O)N(C)[C@H](C(=O)N(C)C)CC(=O)N(C)[C@@H](CC)C(=O)N[C@@H]([C@@H](C)CC)C(=O)N(C)CC(=O)N(C)[C@H]3C/C=C\CCN(C3=O)[C@@H](Cc3ccc(C)cc3)C(=O)N(C)CC(=O)N[C@@H](CCc3cc(F)c(C(F)(F)F)c(F)c3)C(=O)N2C1 [PP2208]
NRAS/KRAS (ratio of KD value with respect to NRAS to KD value with respect to KRAS) [1]: A (a compound having 10 or more and less than 20 is denoted as A) | HRAS/KRAS (ratio of KD value with respect to HRAS to KD value with respect to KRAS) [2]: A (a compound having 10 or more and less than 20 is denoted as A)

CCC[C@H]1C(=O)N[C@@H](C(CC)CC)C(=O)N(C)CC(=O)N(C)[C@H]2C/C=C\CCN(C2=O)[C@@H](Cc2ccc(C)cc2)C(=O)N(C)CC(=O)N[C@@H](CCc2ccc(C(F)(F)F)c(Cl)c2)C(=O)N2C[C@H](OCC)C[C@H]2C(=O)NC2(CC(C)(C)C2)C(=O)N(C)[C@@H](C2CCCC2)C(=O)N(C)[C@H](C(=O)N(C)C)CC(=O)N1C [PP2209]
NRAS/KRAS (ratio of KD value with respect to NRAS to KD value with respect to KRAS) [1]: A (a compound having 10 or more and less than 20 is denoted as A) | HRAS/KRAS (ratio of KD value with respect to HRAS to KD value with respect to KRAS) [2]: A (a compound having 10 or more and less than 20 is denoted as A)

CCC[C@H]1C(=O)N[C@@H]([C@@H](C)CC)C(=O)N(C)CC(=O)N(C)[C@H]2C/C=C\CCN(C2=O)[C@@H](Cc2ccc(C)cc2)C(=O)N(C)CC(=O)N[C@@H](CCc2ccc(C(F)(F)F)c(Cl)c2)C(=O)N2C[C@H](C)C[C@H]2C(=O)NC2(CC(C)(C)C2)C(=O)N(C)[C@@H](C2CCCC2)C(=O)N(C)[C@H](C(=O)N(C)C)CC(=O)N1C [PP2210]
NRAS/KRAS (ratio of KD value with respect to NRAS to KD value with respect to KRAS) [1]: A (a compound having 10 or more and less than 20 is denoted as A) | HRAS/KRAS (ratio of KD value with respect to HRAS to KD value with respect to KRAS) [2]: B (a compound having 3 or more and less than 10 is denoted as B)

CCC[C@H]1C(=O)N[C@@H]([C@@H](C)CC)C(=O)N(C)CC(=O)N(C)[C@H]2C/C=C\CCN(C2=O)[C@@H](Cc2ccc(C)cc2)C(=O)N(C)CC(=O)N[C@@H](CCc2ccc(C(F)(F)F)c(Cl)c2)C(=O)N2C[C@H](CC)C[C@H]2C(=O)NC2(CC(C)(C)C2)C(=O)N(C)[C@@H](C2CCCC2)C(=O)N(C)[C@H](C(=O)N(C)C)CC(=O)N1C [PP2212]
NRAS/KRAS (ratio of KD value with respect to NRAS to KD value with respect to KRAS) [1]: A (a compound having 10 or more and less than 20 is denoted as A) | HRAS/KRAS (ratio of KD value with respect to HRAS to KD value with respect to KRAS) [2]: B (a compound having 3 or more and less than 10 is denoted as B)

CCC[C@@H]1C[C@H]2C(=O)NC3(CC(C)(C)C3)C(=O)N(C)[C@@H](C3CCCC3)C(=O)N(C)[C@H](C(=O)N(C)C)CC(=O)N(C)[C@@H](CCC)C(=O)N[C@@H]([C@@H](C)CC)C(=O)N(C)CC(=O)N(C)[C@H]3C/C=C\CCN(C3=O)[C@@H](Cc3ccc(C)cc3)C(=O)N(C)CC(=O)N[C@@H](CCc3ccc(C(F)(F)F)c(Cl)c3)C(=O)N2C1 [PP2214]
NRAS/KRAS (ratio of KD value with respect to NRAS to KD value with respect to KRAS) [1]: A (a compound having 10 or more and less than 20 is denoted as A) | HRAS/KRAS (ratio of KD value with respect to HRAS to KD value with respect to KRAS) [2]: A (a compound having 10 or more and less than 20 is denoted as A)

CCC[C@H]1C(=O)N[C@@H]([C@@H](C)CC)C(=O)N(C)CC(=O)N(C)[C@H]2C/C=C\CCN(C2=O)[C@@H](Cc2ccc(C)cc2)C(=O)N(C)CC(=O)N[C@@H](CCc2cc(F)c(C(F)(F)F)c(F)c2)C(=O)N2C[C@H](CC)C[C@H]2C(=O)NC2(CCCC2)C(=O)N(C)[C@@H](C2CCCC2)C(=O)N(C)[C@H](C(=O)N(C)C)CC(=O)N1C [PP2216]
NRAS/KRAS (ratio of KD value with respect to NRAS to KD value with respect to KRAS) [1]: A (a compound having 10 or more and less than 20 is denoted as A) | HRAS/KRAS (ratio of KD value with respect to HRAS to KD value with respect to KRAS) [2]: A (a compound having 10 or more and less than 20 is denoted as A)

CCCOC[C@H]1C(=O)N[C@@H]([C@@H](C)CC)C(=O)N(C)CC(=O)N(C)[C@H]2C/C=C\CCN(C2=O)[C@@H](Cc2ccc(C)cc2)C(=O)N(C)CC(=O)N[C@@H](CCc2cc(F)c(C(F)(F)F)c(F)c2)C(=O)N2C[C@H](CC)C[C@H]2C(=O)NC2(CCCC2)C(=O)N(C)[C@@H](C2CCCC2)C(=O)N(C)[C@H](C(=O)N(C)C)CC(=O)N1C [PP2218]
NRAS/KRAS (ratio of KD value with respect to NRAS to KD value with respect to KRAS) [1]: A (a compound having 10 or more and less than 20 is denoted as A) | HRAS/KRAS (ratio of KD value with respect to HRAS to KD value with respect to KRAS) [2]: A (a compound having 10 or more and less than 20 is denoted as A)

CCC[C@H]1C(=O)N[C@@H]([C@H](C)CC)C(=O)N(C)CC(=O)N(C)[C@H]2C/C=C\CCN(C2=O)[C@@H](Cc2ccc(C)cc2)C(=O)N(C)CC(=O)N[C@@H](CCc2ccc(C(F)(F)F)c(Cl)c2)C(=O)N2C[C@H](OCC)C[C@H]2C(=O)NC2(CC(C)(C)C2)C(=O)N(C)[C@@H](CC(C)(C)C)C(=O)N(C)[C@H](C(=O)N(C)C)CC(=O)N1C [PP2219]
NRAS/KRAS (ratio of KD value with respect to NRAS to KD value with respect to KRAS) [1]: A (a compound having 10 or more and less than 20 is denoted as A) | HRAS/KRAS (ratio of KD value with respect to HRAS to KD value with respect to KRAS) [2]: A (a compound having 10 or more and less than 20 is denoted as A)

CC[C@@H]1C[C@H]2C(=O)NC3(CCC3)C(=O)N(C)[C@@H](C3CCCC3)C(=O)N(C)[C@H](C(=O)N(C)C)CC(=O)N(C)[C@@H](CC(C)C)C(=O)N[C@@H]([C@@H](C)CC)C(=O)N(C)CC(=O)N(C)[C@H]3C/C=C\CCN(C3=O)[C@@H](Cc3ccc(C)cc3)C(=O)N(C)CC(=O)N[C@@H](CCc3cc(F)c(C(F)(F)F)c(F)c3)C(=O)N2C1 [PP2220]
NRAS/KRAS (ratio of KD value with respect to NRAS to KD value with respect to KRAS) [1]: A (a compound having 10 or more and less than 20 is denoted as A) | HRAS/KRAS (ratio of KD value with respect to HRAS to KD value with respect to KRAS) [2]: A (a compound having 10 or more and less than 20 is denoted as A)
